Measured values published in patent US5468760A, “Aralkyl-N-hydroxyureas as inhibitors of 5-lipoxygenase and oxidation of low density lipoprotein” (American Home Products Corporation, priority 1993, dated 1995).

Key:
[1] = molecular target: T1, 5-Lipoxygenase (Homo sapiens, UniProt P09917); experiment: Inhibition of 5-Lipoxygenase in Human Whole Blood (LTB4, calcium ionophore A23187); type: cell-based; conditions: 1 μM
T1 construct: endogenous in cells; host or cells: human whole blood from male donors (results expressed per 10^6 neutrophils)
T1 sequence (P09917 1-674): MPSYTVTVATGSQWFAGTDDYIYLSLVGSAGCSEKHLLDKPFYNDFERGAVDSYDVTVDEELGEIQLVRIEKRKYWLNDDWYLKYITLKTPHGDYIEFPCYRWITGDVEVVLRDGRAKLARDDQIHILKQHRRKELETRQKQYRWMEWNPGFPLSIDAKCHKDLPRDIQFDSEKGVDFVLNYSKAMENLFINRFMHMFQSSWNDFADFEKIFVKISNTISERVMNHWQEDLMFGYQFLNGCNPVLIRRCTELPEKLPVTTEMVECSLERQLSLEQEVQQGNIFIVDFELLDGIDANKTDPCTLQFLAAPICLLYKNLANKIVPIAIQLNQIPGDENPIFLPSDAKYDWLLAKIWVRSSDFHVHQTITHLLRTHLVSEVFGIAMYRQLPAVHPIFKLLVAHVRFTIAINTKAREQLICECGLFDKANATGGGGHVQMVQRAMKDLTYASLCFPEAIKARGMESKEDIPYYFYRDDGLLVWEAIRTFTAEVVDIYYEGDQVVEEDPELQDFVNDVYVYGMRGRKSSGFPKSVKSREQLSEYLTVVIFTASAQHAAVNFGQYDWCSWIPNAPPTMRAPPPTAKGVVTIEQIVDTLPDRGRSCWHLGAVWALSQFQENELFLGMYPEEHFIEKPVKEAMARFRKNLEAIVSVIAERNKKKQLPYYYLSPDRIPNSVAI
Protocol: 1. Inhibition of 5-Lipoxygenase in Human Whole Blood
Blood is obtained in 50-100 ml quantities from male donors. White blood cell counts and differentials are made. Two ml of blood are placed in a 15 ml polypropylene test tube. Test compounds are solubilized in dimethylsulfoxide and diluted in 1:10 in 10% bovine serum albumin in phosphate buffered saline, pH 7.4 resulting in a final dimethylsulfoxide concentration of 0.1% in the blood. Then, solutions of test compounds are added to the blood in a shaking water bath at 37° C. for 10 minutes prior to the addition of 30 μM calcium ionophore (A23 187, Sigma). After ionophore administration, whole blood samples are mixed and incubated for 20 minutes at 37° C. in a shaking water bath. Incubation is terminated by placing samples in an ice bath and immediately adding ethylene glycol-bis-(β-aminoethyl ether)-N,N,N',N'-tetraaceticacid (10 mM). Samples are mixed and centrifuged at 1200 x g for 15 minutes at 4° C. Preparation of samples for evaluation by RIA or ELISA is carried out by the following protocol. Plasma is removed from sample tubes, placed in 15 ml polypropylene test tubes containing 8 ml methanol, and then vortexed to precipitate protein. Samples are stored at -70° C. overnight. The next day, samples are centrifuged at 200 x g for 15 minutes at 4° C. to pellet the precipitate. Samples are dried in a Savant SpeedVac Concentrator, Model SVC 200H, reconstituted to original volume with ice cold RIA or ELISA buffer, and stored at -70° C. until assayed. The assay for eicosanoids (LTB4, TxB2, and PGE2) is performed as described by the manufacturer of the [^3 H]-RIA kit or ELISA kit (LTB4 -Amersham, TxB2 and PGE2 -Caymen Chemical).
The total eicosanoid level in 2 ml of blood is calculated and reported as ng/10^6 neutrophils. Significance is determined by a one-way analysis of variance with least significant difference (LSD) comparisons to control (p≤0.05) and IC50 's (μM) are determined by regression analysis (Finney, 1978). Drug effects are expressed as percent change from control values.

[2] = system: Lipoxygenase; experiment: Ex-Vivo Measurement of Lipoxygenase Inhibition in Orally Dosed Rats (LTB4); design: species or system rat (male Sprague Dawley); conditions: p.o., pretreatment period 6 hr
Protocol: 2. Ex-Vivo Measurement of Lipoxygenase Inhibition in Orally Dosed Rats
Male Sprague Dawley rats (Charles River) weighing between 180 g and 200 g were dosed orally with an invention compound (1-25 mg/kg, po) suspended in 0.5% Tween 80®. After an interval of 3 or 6 hours, the rats were anesthetized with metofane (n=4/group) and blood collected in heparinized tubes. White blood cell counts and differentials were made. One ml of blood from each animal was placed in a 5 ml plastic tube in a shaker bath at 37° C. A23187 at a final concentration of 10 μM was added to the blood and the blood vortexed and incubated for 15 min at […] with gentle shaking. Incubation was terminated by vortexing sample and centrifuging immediately at 1200 xG for 15 min at 4° C. The plasma was transferred to 15 ml plastic tubes each containing 8 ml of methanol to precipitate protein followed by vortexing. The samples were stored at -70 ° C. overnight and the next day the samples were centrifuged at 800 xG for 15 min to pellet the precipitate. The samples were dried in a Savant SpeedVac Concentrator Model SVC 200H and reconstituted to the original volume with cold RIA or ELISA buffer. The reconstituted samples were stored at -70° C. until assayed. The assay for LTB4 was performed according to the directions of the [^3 H]RIA kit or ELISA kit (Seragen). The total metabolite level in 1 ml of blood is calculated and reported as ng/10^6 neutrophils. Significance is determined by a one-way analysis of variance with LSD comparisons to control (p≤0.05).

[3] = system: LTB4 Synthesis; experiment: Reverse Passive Arthus Reaction (pleurisy), LTB4 in pleural exudate; type: in vivo, rat (male Lewis); conditions: 10 mg/kg, p.o.
Protocol: 3. Reverse Passive Arthus Reaction
A reverse passive Arthus reaction is induced in the pleural cavity of male Lewis rats (150-200 g; fasted overnight prior to use) by the intravenous administration of bovine serum albumin (BSA; 4 mg/0.2 ml) followed 30 minutes later by the injection of rabbit anti-BSA (1 mg/0.2 ml; lyophilized IgG fraction; Organon Teknika, West Chester, Pa.) into the right pleural space under halothane anesthesia. Drugs or vehicle (0.5% Tween-80) control are administered orally in a volume of 1 ml/100 g body weight at 1 hour prior to the anti-BSA. Animals are sacrificed at either the time of peak eicosanoid production (i.e. 5 minutes after anti-BSA for immunoreactive TxB2, 10 minutes for immunoreactive LTB4, 20 minutes for immunoreactive LTC4) or at the time of peak neutrophil infiltration (4 hours after anti-BSA) by CO2 inhalation. The pleural cavity is then exposed., the fluid exudate removed by gentle vacuum aspiration and the volume of exudate is recorded. For the determination of cellular infiltration, the pleural cavity is rinsed with 3 ml of 0.1% EDTA in sterile saline, and the recovered wash is pooled with the exudate. Cell number is determined on a model ZBI Coulter counter. For determination of eicosanoid production, undiluted pleural exudate is microfuged and the supernatant is extracted with ethanol (8-10 times volume). Extracts are either stored at -20° C., or are evaporated to dryness under a stream of N2 and reconstituted in radioimmunoassay (RIA) buffer.
Eicosanoids are quantitated by RIA according to the procedure specified by the RIA kit manufacturer (Advanced Magnetics, Cambridge, Mass.). Briefly, 100 μl of ^3 H-labeled eicosanoid and 100 μl of specific antibody are sequentially added to 100 μl of extracted pleural exudate in BGG-phosphate buffer which contains 0.01M phosphate, 0.1% bovine gamma globulin and 0.1% sodium azide at pH 7.0. Antibody-bound eicosanoid is separated from unbound eicosanoid by the addition of 750 μl of dextran (0.4%)-coated charcoal (Norit A) containing 0.1% sodium azide. The mixture is centrifuged at 2000 RPM at 5° C. for 15 minutes to pellet the charcoal and adsorbed unbound eicosanoid. Antibody-bound labeled eicosanoid is quantitated by counting in a liquid scintillation counter, and is correlated to concentration by a standard curve.

[4] = system: LT-dependent bronchoconstriction; experiment: Inhibition of Bronchoconstriction in Guinea Pigs Induced by Exogenously Administered Antigen; type: in vivo, guinea pig (male); conditions: Cavia porcellus, 5 min, 5 min post-antigen challenge
Protocol: 4. Inhibition of Brochoconstriction in Guinea Pigs Induced by Exogenously Administered Antigen
Male guinea pigs (Charles River, Wilmington, Mass.) were sensitized 3-4 weeks prior to antigen challenge by administration of 2 i.m. injections of ovalbumin, 1 into each hind limb (35 mg total). Sensitized animals (500-600 g) were fasted overnight prior to experimentation. Conscious animals were then dosed p.o. with drug or vehicle alone (0.5% Tween 80 in H2 O) at the indicated times prior to antigen challenge, or anesthetized animals were dosed i.v. with drug or vehicle alone (DMSO) 5 min prior to antigen challenge. Animals were anesthetized by urethane (2.8 g/kg i.p.). A carotid artery and jugular vein were cannulated to allow for the monitoring of blood pressure and the administration of drugs, respectively. The trachea was then cannulated and connected to a Harvard Apparatus rodent ventilator (S. Natick, Mass.). Spontaneous respiration was abolished by the administration of succinylcholine (2.5 mg/kg i.v.). The animals were then ventilated with room air at a rate of 65 breaths per min. Airway inflation pressure was measured using a Statham pressure transducer (Gould Instruments, Cleveland, Ohio) connected to the tracheal cannula via a side-arm and recorded on a Grass Instruments recorder (Quincy, Mass.). The tidal volume (approximately 10 cc/kg) was adjusted to give a baseline inflation pressure of 8-10 cm H2 O at end inspiration. Animals were then allowed 20 min to stabilize.
Following the stabilization period, animals were given i.v. injections of pyrilamine (5 mg/kg), propranolol (0.1 mg/kg) and indomethacin (10 mg/kg) at 15, 10 and 5 min, respectively, prior to antigen challenge. This pretreatment results in an LT-dependent bronchoconstriction following antigen challenge, which was accomplished by i.v. administration of ovalbumin (10 mg/kg). Only one bronchoconstriction per animal was induced. End-inspiratory inflation pressure (in cm H2 O over baseline) was measured at 5 min post-antigen challenge. A mean value and standard error for the % inhibition of control bronchoconstriction in each drug-treated group was then calculated.

[5] = system: LDL; conditions: cell mediated and Cu^+2 mediated; cited from earlier work
[6] = system: atherosclerotic lesions; conditions: WHHL rabbits; cited from earlier work

inhibition at 1 µM [1] [%]	Compound	% Inhibition of LTB4 ([2]; 5 mg/kg) [%]	% Inhibition LTB4 Synthesis [3] [%]	% Inhibition of LTB4 ([2]; 10 mg/kg) [%]	inhibition in vivo at 10 mg/kg ([4]; iv, 10 mg/kg i.v.) [%]	inhibition in vivo at 25 mg/kg ([4]; po, 25 mg/kg p.o.) [%]	inhibition of oxidative modification of LDL [5]	inhibition of formation of atherosclerotic lesions [6]
48	Cc1oc(-c2ccc(C(F)(F)F)cc2)nc1COc1cccc(CN(O)C(N)=O)c1 [Example 2, 1-Hydroxy-1-[3-[5-methyl-2-(4-trifluoromethyl-phenyl)-oxazol-4-ylmethoxy]-benzyl]-urea]	45	59					
74	NC(=O)N(O)Cc1cccc(OCc2coc(-c3ccc(F)cc3)n2)c1 [Example 3, 1-[3-[2-(4-fluoro-phenyl)-oxazol-4-ylmethoxy]-benzyl]-1-hydroxy-urea]			85	84	26		
	CC(C)(Sc1cc(C(C)(C)C)c(O)c(C(C)(C)C)c1)Sc1cc(C(C)(C)C)c(O)c(C(C)(C)C)c1 [Probucol]						inhibits both cell mediated and Cu^+2 mediated oxidative modification of LDL	inhibit the formation of atherosclerotic lesions in WHHL rabbits
